Source: patent US10723699B2 (Hyundai Pharm Co., Ltd., priority 2015, dated 2020)
Like-named read-outs stand apart in the source and are kept apart here.

Target: T1, G protein-coupled receptor 119 (GPR-119) (Mesocricetus auratus, UniProt A0A1U8CD06)
T1 construct: hamster-derived β-cells containing G protein-coupled receptor 119 (GPR-119), HIT-T15 cells; host or cells: HIT-T15 (hamster pancreatic β-cells)
T1 sequence (A0A1U8CD06 1-334): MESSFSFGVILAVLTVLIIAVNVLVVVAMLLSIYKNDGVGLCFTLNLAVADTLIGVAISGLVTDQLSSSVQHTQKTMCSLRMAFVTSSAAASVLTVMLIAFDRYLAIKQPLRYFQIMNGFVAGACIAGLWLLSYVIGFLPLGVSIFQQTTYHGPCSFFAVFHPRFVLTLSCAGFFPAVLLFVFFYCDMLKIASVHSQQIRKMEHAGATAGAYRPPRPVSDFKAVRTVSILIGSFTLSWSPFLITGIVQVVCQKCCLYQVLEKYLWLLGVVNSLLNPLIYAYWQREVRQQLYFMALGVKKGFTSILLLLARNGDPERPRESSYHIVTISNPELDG
Assay: cAMP activity in HIT-T15 cells (cAMP dynamic kit, FRET)
Assay type: cell-based, hamster
In short: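 Hamster HIT-T15 cells (60,000/well) were treated next day with compound at six concentrations, 0.0032–10 μM, for 1 h at 37° C. Cells were then lysed and cAMP measured by competitive HTRF immunoassay (D2-cAMP, cryptate anti-cAMP). Activity was derived as the change in FRET signal relative to DMSO.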

[1] = 1 hour at 37° C., six concentrations 0.0032 to 10 μM, read-out: EC50

## CC(C)c1noc(N2CCC(COc3ccc(C4=CCC(C(=O)N5CCC(=O)CC5)CC4)cc3F)CC2)n1 (stereo not shown) [Example 345, 1-(4-(3-fluoro-4-((1-(3-isopropyl-1,2,4-oxadiazol-5-yl)piperidin-4-yl)methoxy)phenyl)cyclohex-3-enecarbonyl)piperid in-4-one]
EC50 (nM), 1 hour at 37° C., six concentrations 0.0032 to 10 μM
  EC50: 36 nM
EC50 value, Table 2
  EC50: ≤ 50 nM

## CCc1cnc(N2CCC(COc3ccc(C4=CCC(C(=O)N5CCC(C(F)(F)F)CC5)CC4)cc3F)CC2)nc1 (stereo not shown) [Example 456, (4-(4-((1-(5-ethylpyrimidin-2-yl)piperidin-4-yl)methoxy)-3-fluorophenyl)cyclohex-3-enyl)(4-(trifluoromethyl)piperidin-1-yl)methanone]
[1]
  EC50: 18 nM
Table 2, read-out: EC50 value
  EC50: ≤ 50 nM

## CCc1cnc(N2CCC(COc3ccc(C4=CCC(C(=O)N5CCOCC5)CC4)cc3F)CC2)nc1 (stereo not shown) [Example 299, (4-(4-((1-(5-ethylpyrimidin-2-yl)piperidin-4-yl)methoxy)-3-fluorophenyl)cyclohex-3-enyl)(morpholino)methanone]
[1]
  EC50: 12 nM
Table 2, read-out: EC50 value
  EC50: ≤ 50 nM

## CC(C)c1noc(N2CCC(COc3ccc(C4=CCC(C(=O)N5CCCCC5)CC4)cc3F)CC2)n1 (stereo not shown) [Example 332, (4-(3-fluoro-4-((1-(3-isopropyl-1,2,4-oxadiazol-5-yl)piperidin-4-yl)methoxy)phenyl)cyclohex-3-enyl)(piperidin-1-yl)methanone]
[1]
  EC50: 6.7 nM
Table 2, read-out: EC50 value
  EC50: ≤ 50 nM

## CCc1cnc(N2CCC(COc3ccc(C4=CCC(C(=O)N(CC)CCO)CC4)cc3F)CC2)nc1 (stereo not shown) [Example 360, N-ethyl-4-(4-((1-(5-ethylpyrimidin-2-yl)piperidin-4-yl)methoxy)-3-fluorophenyl)-N-(2-hydroxyethyl)cyclohex-3-enecarboxamide]
[1]
  EC50: 8.8 nM
Table 2, read-out: EC50 value
  EC50: ≤ 50 nM

## CCc1cnc(N2CCC(COc3ccc(C4=CCC(C(=O)N5CCC[C@H]5CO)CC4)cc3)CC2)nc1 (single isomer, unassigned; (-)) [Example 465]
[1]
  EC50: 110 nM

## CCc1cnc(N2CCC(COc3ccc(C4=CCC(C(=O)N5CCCCC5)CC4)cc3F)CC2)nc1 (stereo not shown) [Example 292, (4-(4-((1-(5-ethylpyrimidin-2-yl)piperidin-4-yl)methoxy)-3-fluorophenyl)cyclohex-3-enyl)(piperidin-1-yl)methanone]
[1]
  EC50: 12 nM
Table 2, read-out: EC50 value
  EC50: ≤ 50 nM

## CCc1cnc(N2CCC(COc3ccc(C4=CCC(C(=O)N(C)CCO)CC4)cc3F)CC2)nc1 (stereo not shown) [Example 359, 4-(4-((1-(5-ethylpyrimidin-2-yl)piperidin-4-yl)methoxy)-3-fluorophenyl)-N-(2-hydroxyethyl)-N-methylcyclohex-3-enecarboxamide]
[1]
  EC50: 14 nM
Table 2, read-out: EC50 value
  EC50: ≤ 50 nM

## CCc1cnc(N2CCC(COc3ccc(C4=CCC(C(=O)N5CCC(O)CC5)CC4)cn3)CC2)nc1 (stereo not shown) [Example 353, (4-(6-((1-(5-ethylpyrimidin-2-yl)piperidin-4-yl)methoxy)pyridin-3-yl)cyclohex-3-enyl)(4-hydroxypiperidin-1-yl)methanone]
[1]
  EC50: 58 nM

## CC(C)c1noc(N2CCC(COc3ccc(C4=CCC(C(=O)NC5CCCC5)CC4)cc3F)CC2)n1 (stereo not shown) [Example 365, N-cyclopentyl-4-(3-fluoro-4-((1-(3-isopropyl-1,2,4-oxadiazol-5-yl)piperidin-4-yl)methoxy)phenyl)cyclohex-3-enecarboxamide]
[1]
  EC50: 38 nM
Table 2, read-out: EC50 value
  EC50: ≤ 50 nM

## CC(C)(C)OC(=O)N1CCC(COc2ccc(C3=CCC(C(=O)N4CCC(=NO)CC4)CC3)nc2)CC1 (stereo not shown) [Example 344, tert-butyl 4-((6-(4-(4-(hydroxyimino)piperidine-1-carbonyl)cyclohex-1-enyl)pyridin-3-yloxy)methyl)piperidine-1-carboxylate]
[1]
  EC50: 45 nM
Table 2, read-out: EC50 value
  EC50: ≤ 50 nM

## CC(C)(C)OC(=O)N1CCC(COc2ccc(C3=CCC(C(=O)N4CCC(CCO)CC4)CC3)nc2)CC1 (stereo not shown) [Example 326, tert-butyl 4-((6-(4-(4-(2-hydroxyethyl)piperidine-1-carbonyl)cyclohex-1-enyl)pyridin-3-yloxy)methyl)piperidine-1-carboxylate]
[1]
  EC50: 70 nM

## CCc1cnc(N2CCC(COc3ccc(C4=CCC(C(=O)N5CCC(O)CC5)CC4)cc3C#N)CC2)nc1 (stereo not shown) [Example 390, 2-((1-(5-ethylpyrimidin-2-yl)piperidin-4-yl)methoxy)-5-(4-(4-hydroxypiperidine-1-carbonyl)cyclohex-1-enyl)benzonitrile]
[1]
  EC50: 70 nM

## CCc1cnc(N2CCC(COc3ccc(C4=CCC(C(=O)N5CCC(F)(F)CC5)CC4)cc3F)CC2)nc1 (stereo not shown) [Example 457, (4,4-difluoropiperidin-1-yl)(4-(4-((1-(5-ethylpyrimidin-2-yl)piperidin-4-yl)methoxy)-3-fluorophenyl)cyclohex-3-enyl)methanone]
[1]
  EC50: 9.8 nM
Table 2, read-out: EC50 value
  EC50: ≤ 50 nM

## CC(C)c1noc(N2CCC(COc3ccc(C4=CCC(C(=O)N5CCCC5)CC4)cn3)CC2)n1 (stereo not shown) [Example 315, (4-(6-((1-(3-isopropyl-1,2,4-oxadiazol-5-yl)piperidin-4-yl)methoxy)pyridin-3-yl)cyclohex-3-enyl)(pyrrolidin-1-yl)methanone]
[1]
  EC50: 68 nM

## CC(C)c1noc(N2CCC(COc3ccc(C4=CCC(C(=O)N5CCNCC5)CC4)cc3F)CC2)n1 (stereo not shown) [Example 381, (4-(3-fluoro-4-((1-(3-isopropyl-1,2,4-oxadiazol-5-yl)piperidin-4-yl)methoxy)phenyl)cyclohex-3-enyl)(piperazin-1-yl)methanone]
[1]
  EC50: 110 nM

## CCc1cnc(N2CCC(COc3ccc(C4=CCC(C(=O)N5CCC[C@H]5CO)CC4)cc3)CC2)nc1 (single isomer, unassigned; (+)) [Example 466]
[1]
  EC50: 12 nM
Table 2, read-out: EC50 value
  EC50: ≤ 50 nM

## CC(C)(C)OC(=O)N1CCC(COc2ccc(C3=CCC(C(=O)N4CCOCC4)CC3)cc2F)CC1 (single isomer, unassigned; (-)) [Example 443, (−)-tert-butyl 4-((2-fluoro-4-(4-(morpholine-4-carbonyl)cyclohex-1-enyl)phenoxy)methyl)piperidine-1-carboxylate]
[1]
  EC50: 38 nM

## CCc1cnc(N2CCC(COc3ccc(C4=CCC(C(=O)N5CCCC5)CC4)cc3N)CC2)nc1 (stereo not shown) [Example 393, (4-(3-amino-4-((1-(5-ethylpyrimidin-2-yl)piperidin-4-yl)methoxy)phenyl)cyclohex-3-enyl)(pyrrolidin-1-yl)methanone]
[1]
  EC50: 130 nM

## CCc1cnc(N2CCC(COc3ccc(C4=CCC(C(=O)N5CCC(CCO)CC5)CC4)cc3)CC2)nc1 (stereo not shown) [Example 173, (4-(4-((1-(5-ethylpyrimidin-2-yl)piperidin-4-yl)methoxy)phenyl)cyclohex-3-enyl)(4-(2-hydroxyethyl)piperidin-1-yl)methanone]
Table 2, read-out: EC50 value
  EC50: ≤ 50 nM

## O=C(Oc1ccc([N+](=O)[O-])cc1)N1CCC(COc2ccc(C3=CCC(C(=O)N4CCCC4)CC3)cc2F)CC1 (stereo not shown) [Example 404, 4-nitrophenyl 4-((2-fluoro-4-(4-(pyrrolidine-1-carbonyl)cyclohex-1-enyl)phenoxy)methyl)piperidine-1-carboxylate]
[1]
  EC50: 55 nM

## CCc1cnc(N2CCC(COc3ccc(C4=CCC(C(=O)N5CCC(N6CCCC6)CC5)CC4)cc3F)CC2)nc1 (stereo not shown) [Example 298, (4-(4-((1-(5-ethylpyrimidin-2-yl)piperidin-4-yl)methoxy)-3-fluorophenyl)cyclohex-3-enyl)(4-(pyrrolidin-1-yl)piperidin-1-yl)methanone]
[1]
  EC50: 150 nM

## CCc1cnc(N2CCC(COc3ccc(C4=CCC(C(=O)N5CCCC5)CC4)cc3C(F)(F)F)CC2)nc1 (stereo not shown) [Example 374]
[1]
  EC50: 150 nM

## CC(C)c1noc(N2CCC(COc3ccc(C4=CCC(C(=O)N5CCC(=O)C5)CC4)cc3)CC2)n1 (stereo not shown) [Example 251]
[1]
  EC50: 22 nM
Table 2, read-out: EC50 value
  EC50: ≤ 50 nM

## CCc1cnc(N2CCC(COc3ccc(C4=CCC(C(=O)N5CCC(C(F)(F)F)CC5)CC4)c(F)c3)CC2)nc1 (stereo not shown) [Example 452, (4-(4-((1-(5-ethylpyrimidin-2-yl)piperidin-4-yl)methoxy)-2-fluorophenyl)cyclohex-3-enyl)(4-(trifluoromethyl)piperidin-1-yl)methanone]
[1]
  EC50: 18 nM
Table 2, read-out: EC50 value
  EC50: ≤ 50 nM

## CC(C)(C)OC(=O)N1CCC(COc2ccc(C3=CCC(C(=O)N4CCN(CC5CC5)CC4)CC3)cc2)CC1 (stereo not shown) [Example 256, tert-butyl 4-((4-(4-(4-(cyclopropylmethyl)piperazine-1-carbonyl)cyclohex-1-enyl)phenoxy)methyl)piperidine-1-carboxylate]
Table 2, read-out: EC50 value
  EC50: ≤ 50 nM

## O=C(Oc1ccccc1)N1CCC(COc2ccc(C3=CCC(C(=O)N4CCOCC4)CC3)cc2F)CC1 (stereo not shown) [Example 445, phenyl 4-((2-fluoro-4-(4-(morpholine-4-carbonyl)cyclohex-1-enyl)phenoxy)methyl)piperidine-1-carboxylate]
[1]
  EC50: 11 nM
Table 2, read-out: EC50 value
  EC50: ≤ 50 nM

## CCc1cnc(N2CCC(COc3ccc(C4=CCC(C(=O)N5CC=CC5)CC4)cc3)CC2)nc1 (stereo not shown) [Example 235, (2,5-dihydro-1H-pyrrol-1-yl)(4-(4-((1-(5-ethylpyrimidin-2-yl)piperidin-4-yl)methoxy)phenyl)cyclohex-3-enyl)methanone]
Table 2, read-out: EC50 value
  EC50: ≤ 50 nM

## CC(C)c1noc(N2CCC(COc3ccc(C4=CCC(C(=O)N5CCC(CCO)CC5)CC4)cn3)CC2)n1 (stereo not shown) [Example 320, (4-(2-hydroxyethyl)piperidin-1-yl)(4-(6-((1-(3-isopropyl-1,2,4-oxadiazol-5-yl)piperidin-4-yl)methoxy)pyridin-3-yl)cyclohex-3-enyl)methanone]
[1]
  EC50: 53 nM
